In patent US7659400B2, “Radiolabelled benzamide analogues, their synthesis and use in diagnostic imaging” (Washington University, priority 2003, dated 2010):
Several values for one entry are separate records, joined by “and”; a condition that tells them apart may be missing. Equal values may be shown once.

Test system: EMT-6 tumors
Assay: Biodistribution of 18F-labeled ligands in mice bearing EMT-6 tumors
Format: in vivo, female Balb/c mice
Description: This example illustrates in vivo evaluation of compounds of the present teachings. All animal experiments were conducted in compliance with the Guidelines for the Care and Use of Research Animals established by Washington University's Animal Studies Committee. EMT-6 mouse mammary adenocarcinoma cells (5×10^5 cells in 100 uL of phosphate-buffered saline) were implanted subcutaneously in the scapular region of female Balb/c mice (˜2-month old and 17-22 g; Charles River Laboratories). […] Groups of at least 4 mice were used for each time point. […] After counting, the percentage of the injected dose per gram of tissue (%ID/g) was calculated. The tumor/organ ratios were calculated by dividing the %ID/g of the tumor by the %ID/g of each organ.

Biodistribution: blood (5 min after i.v. injection): 3.57 ± 0.43 %ID/g | Biodistribution: bone (5 min after i.v. injection): 2.90 ± 0.39 %ID/g | Biodistribution: brain (5 min after i.v. injection): 1.09 ± 0.11 %ID/g | Biodistribution: fat (5 min after i.v. injection): 2.85 ± 0.47 %ID/g | Biodistribution: heart (5 min after i.v. injection): 3.74 ± 0.37 %ID/g | Biodistribution: kidney (5 min after i.v. injection): 42.94 ± 3.34 %ID/g | Biodistribution: liver (5 min after i.v. injection): 32.60 ± 3.96 %ID/g | Biodistribution: lung (5 min after i.v. injection): 12.08 ± 1.98 %ID/g | Biodistribution: muscle (5 min after i.v. injection): 1.95 ± 0.19 %ID/g | Biodistribution: tumor (tumor uptake) (5 min after i.v. injection): 3.28 ± 0.41 %ID/g | Biodistribution: blood (30 min after i.v. injection): 2.81 ± 0.32 %ID/g | Biodistribution: bone (30 min after i.v. injection): 1.17 ± 0.06 %ID/g | Biodistribution: brain (30 min after i.v. injection): 0.40 ± 0.03 %ID/g | Biodistribution: fat (30 min after i.v. injection): 0.96 ± 0.13 %ID/g | Biodistribution: heart (30 min after i.v. injection): 1.55 ± 0.11 %ID/g | Biodistribution: kidney (30 min after i.v. injection): 17.55 ± 2.75 %ID/g | Biodistribution: liver (30 min after i.v. injection): 13.12 ± 1.39 %ID/g | Biodistribution: lung (30 min after i.v. injection): 3.08 ± 0.23 %ID/g | Biodistribution: muscle (30 min after i.v. injection): 0.98 ± 0.18 %ID/g | Biodistribution: tumor (tumor uptake) (30 min after i.v. injection): 2.59 ± 0.19 %ID/g | Biodistribution: tumor (tumor uptake) (60 min (1 h) after i.v. injection): 2.09 ± 0.28 %ID/g | Biodistribution: blood (60 min after i.v. injection): 1.69 ± 0.63 %ID/g | Biodistribution: bone (60 min after i.v. injection): 1.12 ± 0.16 %ID/g | Biodistribution: brain (60 min after i.v. injection): 0.32 ± 0.05 %ID/g | Biodistribution: fat (60 min after i.v. injection): 0.38 ± 0.05 %ID/g | Biodistribution: heart (60 min after i.v. injection): 1.04 ± 0.21 %ID/g | Biodistribution: kidney (60 min after i.v. injection): 6.92 ± 1.61 %ID/g | Biodistribution: liver (60 min after i.v. injection): 5.69 ± 0.54 %ID/g | Biodistribution: lung (60 min after i.v. injection): 1.60 ± 0.27 %ID/g | Biodistribution: muscle (60 min after i.v. injection): 0.58 ± 0.11 %ID/g | Biodistribution: tumor (tumor uptake) (120 min (2 h) after i.v. injection): 0.96 %ID/g and 0.96 ± 0.24 %ID/g | Biodistribution: blood (120 min after i.v. injection): 0.52 ± 0.10 %ID/g | Biodistribution: bone (120 min after i.v. injection): 1.28 ± 0.28 %ID/g | Biodistribution: brain (120 min after i.v. injection): 0.20 ± 0.03 %ID/g | Biodistribution: fat (120 min after i.v. injection): 0.15 ± 0.06 %ID/g | Biodistribution: heart (120 min after i.v. injection): 0.40 ± 0.07 %ID/g | Biodistribution: kidney (120 min after i.v. injection): 1.12 ± 0.16 %ID/g | Biodistribution: liver (120 min after i.v. injection): 2.30 ± 0.33 %ID/g | Biodistribution: lung (120 min after i.v. injection): 0.51 ± 0.08 %ID/g | Biodistribution: muscle (120 min after i.v. injection): 0.28 ± 0.10 %ID/g | tumor:fat ratio (2 h after i.v. injection): ~6
Compound: COc1cc2c(cc1OC)CN(CCCCNC(=O)c1cc(Br)ccc1OCC[18F])CC2 [[^18F]3d]
clearance from the blood (in words) (mouse, in vivo): cleared much more slowly from the blood than [^18F]3c
